Data published in ChEMBL document CHEMBL3864173, “Design and Synthesis of Novel Macrocyclic Mer Tyrosine Kinase Inhibitors” (ACS Med Chem Lett, 2016).

Assay: Solubility of the compound at pH 7.4
Format: physicochemical
Details: buffer

solubility: 47 mg/mL
SMILES: CCCCNc1ncc2c(-c3ccc(CN4CCN(C)CC4)cc3)cn([C@H]3CC[C@H](O)CC3)c2n1.Cl
